In patent US20200352184A1, “Prevention of Postharvest Physiological Deterioration using Sulfur-Donating Compounds” (Apeel Technology, Inc., priority 2017, published 2020):

Assay: Saturation concentration in water
Type: physicochemical
Settings: standard temperature and pressure stated for sodium thiosulfate
Experimental: For example, at standard temperature and pressure, water can become saturated with sodium thiosulfate at a concentration of about 700 mg/mL. Accordingly, in some embodiments, the concentration of a solution (e.g., an aqueous solution) containing sodium thiosulfate can be about 700 mg/mL. […] Accordingly, in some embodiments, the concentration of the sodium thiosulfate is between about 400 and about 700 mg/mL (e.g., between about 500 and about 700 mg/mL). In some embodiments, the concentration of the sodium thiosulfate salt is about 100, about 200, about 300, about 400, about 500, about 600, or about 700 mg/mL. In some embodiments, the concentration can be lower than 700 mg/mL.
In some embodiments, a metabisulfite solution (e.g., sodium metabisulfite) solution in water can become saturated at about 300 mg/mL. Accordingly, in some embodiments solutions of sodium metabisulfite are used at a concentration of about 300 mg/mL, about 200 mg/mL, or about 100 mg/mL.

| concentration at which water becomes saturated | SMILES |
| --- | --- |
| about 300 mg/mL | O=S([O-])S(=O)(=O)[O-].[Na+].[Na+] [sodium metabisulfite] |
| about 700 mg/mL | O.O.O.O.O.O=S([O-])([O-])=S.[Na+].[Na+] [sodium thiosulfate, sodium thiosulfate pentahydrate] |
